Measurements as given in patent US20260373136A1, “A NOVEL DOSAGE REGIMEN USING LOW DOSES OF DONEPEZIL OR DERIVATIVE THEREOF FOR PREVENTING OR TREATING A COMPULSIVE DISORDER” (SORBONNE UNIVERSITE, priority 2022, published 2026).

Legend:
[1] = Generalized Anxiety Disorders Assessment (GAD-7) questionnaire before and after treatment; format: in vivo, human; details: for anxiety: GAD-7 post vs pre-treatment; for General anxiety disorder (GAD-7) score, post treatment: 5-9 mild, 10-14 moderate, 15-21 severe anxiety
Description: (§1) 6 anorexic patients were treated with donepezil: 5 of them with a daily dose according to the present invention and 1 with a higher dose (comparative).
(§2) The studies were led in hospital. Each case is presented below.
(§3) The treatment started with a daily dose of donepezil of 0.5 mg for 10 days then the daily dose was increased to 1 mg for 7 days then increased to 1.5 mg for 71 days (2 months and 10 days) then increased to 2 mg for 22 days and then increased to 2.5 mg and remains on this dose for 4 months and 18 days.
Patient #2 anxiety has also been evaluated with Generalized Anxiety Disorders Assessment (GAD-7) questionnaire (available on https://adaa.org/sites/default/files/GAD-7_Anxiety-updated_O.pdf) before and after the treatment. The following scores have been obtained:
The score obtained with questionary GAD-7 is classified as follows: • 5-9: mild anxiety; 10-14: moderate anxiety; 15-21: severe anxiety
(§4) The treatment started with a daily dose of donepezil of 0.5 mg for 13 days then the daily dose was increased to 0.75 mg for 9 days then increased to 1 mg for 17 days and then increased to 1.5 mg and remained at this dosage for a month then stopped for two months and then restarted with a daily dose of 1.5 mg that remains within 1 month and then discontinued.
Patient #4 anxiety has also been evaluated with questionnaire GAD-7 before and after the treatment. The following scores have been obtained:
(§5) The treatment started with a daily dose of donepezil of 0.5 mg for 8 days and then the daily dose was increased to 1 mg for 9 days and then increased to 1.67 mg for 62 days and then increased to 2.5 mg.
Patient #6 anxiety has also been evaluated with questionnaire GAD-7 before and after the treatment. The following scores have been obtained:
The score obtained with questionnaire GAD-7 is classified as follows: • 5-9: mild anxiety; 10-14: moderate anxiety; 15-21: severe anxiety

AChE = details: background statement; cited from earlier work
[2] = Patient Health Questionnaire (PHQ-9) before and after treatment; format: in vivo, human; details: for depression symptoms: PHQ-9 post vs pre-treatment; for Patient Health Questionnaire (PHQ-9) score, post treatment: 5-9 mild, 10-14 moderate, 15-19 moderately severe, 20-27 severe depression
Description: as §1, §2, §3
Patient #2 depression symptoms have also been evaluated with Patient Health Questionnaire (PHQ-9) (available on https://med.stanford.edu/fastlab/research/imapp/msrs/_jcr_content/main/accordion/accor dion_content3/download_256324296/file.res/PHQ9%20id%20date%2008.03.pdf) before and after the treatment. The following scores have been obtained:
The score obtained with questionnaire PHQ-9 is classified as follows: • 5-9: mild depression; 10-14: moderate depression; 15-19: moderately severe depression; • 20-27: severe depression
as §4
Patient #4 depression symptoms have also been evaluated with questionnaire PHQ-9 before and after the treatment. The following scores have been obtained:
The score obtained with questionnaire PHQ-9 is classified as follows: • 5-9: mild depression; 10-14: moderate depression; 15-19: moderately severe depression; 20-27: severe depression
as §5
Patient #6 depression symptoms have also been evaluated with questionnaire PHQ-9 before and after the treatment.

[3] = Clinical observation of eating disorder behaviours and cognitions of anorexic patients treated with donepezil; format: in vivo, human
Description: as §1, §2
Patient #2 is a person who developed anorexia nervosa restricting type in adolescence. They were very restricted in the types of food they ate and could not eat food that was processed or high in sugar or fats. They exercised 3-4 hours a day. They were unable to reduce their exercising even minimally […] becoming flooded with debilitating anxiety. They were unable to eat enough to maintain a healthy weight. Their BMI was 18.5 kg/m^2 and was medically stable when they started donepezil.
as §3
Patient #3 is a person with a 20-year history of anorexia nervosa binge/purge type who had been in recovery for two years before relapsing following a relationship trauma. They were slowly losing weight and was bingeing and purging multiple times every evening. They also were waking up every morning at 4 am to exercise obsessively for hours. They were spending all their disposable income on binge foods and was slowly draining their savings. At times they were stealing food to binge on.
The treatment started with a daily dose of donepezil of 0.5 mg for 10 days and then the daily dose was increased to 1 mg for 9 days and then increased to 1.5 mg for 17 days and then increased to 2 mg for 7 days and then increased to 2.5 mg for 16 days and then discontinued.
as §4
A patient who has suffered from anorexia nervosa during their second pregnancy. They have been vigilant about their caloric intake and body image since their adolescence. They also suffer from recurrent depression treated with venlafaxine 75 mg per day and a generalized anxiety disorder. Undernutrition worsened markedly, reaching a minimum BMI of 11 kg/m^2. The maximum lifetime BMI excluding pregnancy is 19.8 kg/m^2. The symptomatology is dominated by qualitative and quantitative food restriction and physical hyperactivity. There is a period of several months of hyperphagia and provoked vomiting. Neurocognitive executive functions are preserved, there is a high tolerance of delayed reward measured by Delay Discounting Task.
Donepezil was taken at a rate of 2.5 mg per day for 2 months.
A person with a 20-year history of anorexia nervosa-binge/purge subtype and a comorbid history or obsessive-compulsive disorder. They have been very symptomatic throughout their adolescence and went into a partial remission in early adulthood. Over the next 10 years, their symptoms waxed and waned and they had 2 major relapses that they had slowly recovered from. They were currently weight restored but following some environmental stresses, was starting to relapse. They were struggling with increasing eating disordered ruminations and cognitions, increasing body image distortions and dissatisfaction. They were becoming more rigid and restrictive in their eating. They also saw a rise in their obsessive-compulsive disorder symptoms.
as §5

[4] = Patient #2, daily dose 0.5-2.5 mg
[5] = Patient #4, daily dose 0.5 to 1.5 mg
[6] = Patient #6, daily dose 0.5 mg to 2.5 mg
[7] = Patient #2, daily dose 0.5-2.5 mg, over the next 5 months
[8] = Patient #3, daily dose 0.5-2.5 mg, within a month of starting
[9] = Patient #6, daily dose 0.5 mg to 2.5 mg, over 3 months

COc1cc2c(cc1OC)C(=O)C(CC1CCN(Cc3ccccc3)CC1)C2 (stereo not drawn) [donepezil]
anxiety [1, 4]: diminution of their anxiety | General anxiety disorder (GAD-7) score, post treatment ([1]; Patient #2, daily dose 0.5-2.5 mg, pre-treatment score 16): 12 | anxiety [1, 5]: diminution of their anxiety | General anxiety disorder (GAD-7) score, post treatment ([1]; Patient #4, daily dose 0.5 to 1.5 mg, pre-treatment score 16): 9 | anxiety [1, 6]: strong diminution of their anxiety | General anxiety disorder (GAD-7) score, post treatment ([1]; Patient #6, daily dose 0.5 mg to 2.5 mg, pre-treatment score 15): 3 | inhibition of AChE (AChE): reversible and selective inhibitor of AChE | depression symptoms [2, 4]: diminution of their depression symptoms | Patient Health Questionnaire (PHQ-9) score, post treatment ([2]; Patient #2, daily dose 0.5-2.5 mg, pre-treatment score 10): 4 | depression symptoms [2, 5]: diminution of their depression symptoms | Patient Health Questionnaire (PHQ-9) score, post treatment ([2]; Patient #4, daily dose 0.5 to 1.5 mg, pre-treatment score 17): 5 | depression symptoms [2, 6]: diminution of their depression symptoms | Patient Health Questionnaire (PHQ-9) score, post treatment ([2]; Patient #6, daily dose 0.5 mg to 2.5 mg, pre-treatment score 6): 2 | flexibility with eating [3, 7]: able to be more flexible with their eating and incorporate a wider variety of foods | preoccupation with weight or appearance [3, 7]: much less preoccupied with their weight or appearance | ruminations and compulsions to exercise [3, 7]: decrease in ruminations and compulsions to exercise | exercise per day ([3]; Patient #2, daily dose 0.5-2.5 mg, over the next 5 months, exercised 3-4 hours a day before): 90 minutes a day | bingeing (and consequent purging) [3, 8]: able to reduce their bingeing (and consequent purging) significantly | stealing food [3, 8]: stopped stealing food completely | maximum spending on binge foods ([3]; Patient #3, daily dose 0.5-2.5 mg, within a month of starting, all disposable income before): ≤ 5.00 $ | flexibility with eating and eating disordered cognitions ([3]; Patient #4, daily dose 1.5 mg, within a month): more flexible with their eating and less preoccupied with their eating disordered cognitions and urges to restrict and lose weight | flexibility with eating and weight after restart ([3]; Patient #4, donepezil restarted for a month at 1.5 mg daily, improvements continued after discontinuing): more flexible with their eating, and they started to gain weight slowly | eating disordered cognitions after stopping medication ([3]; Patient #4, two months without donepezil after 1st month at 1.5 mg daily): increasing rigidity in their eating disordered cognitions | ease of eating ([3]; Patient #5, 2.5 mg per day for 2 months, end of treatment period): began to eat more easily | eating disordered cognitions and ruminations [3, 9]: significant decrease in their eating disordered cognitions and ruminations | intensity of body image distress [3, 9]: reduction in the intensity of their body image distress | usefulness to treat anorexia and related compulsive behaviors ([3]; low dose between 0.5 and 2.5 mg/day, clinical cases overall (conclusion)): useful to treat anorexia and related compulsive behaviors
